Measurements: patent publication US20080090756A1, “Somatostatin agonists” (The Administrators of the Tulane Educational Fund, priority 2001, published 2008)
Bridge positions count the residues as written; N and C are the ends. Square brackets hold non-standard residues; d marks the D form. Peptide text beside a SMILES is read from it. NMeT = CN[C@H](C(=O)O)[C@@H](C)O

Columns and labels:
hSSTR-5 = target: T1, hSSTR-5 (Homo sapiens, UniProt P35346); experiment: Radioligand binding assay, cloned human somatostatin receptor type 5; settings: CHO-K1 cell membranes, displacement of [125I]Tyr11-SRIF; mean ± SEM, single values = one experiment; read-out: Kd ± SEM hsst5
T1 construct: each containing the entire coding region of the full-length receptors; expressed in transfected cells
Excerpt: (§1) Functional Expression of the Cloned Human Somatostatin Receptors. The genomic clones containing the human somatostatin receptors (hSSTR-1 to hSSTR-5) (Yamada, Y., et al. al., Proc. Natl. Acad. Sci. USA. 1992, 89, 251-255; Yasuda, K., et al., J. Biol. Chem. 1992, 267, 20422-20428; Yamada, Y., et al., Mol. Pharmacol. 1992, 42, 2136-2142; Rohrer, L., et al., Proc. Natl. Acad. Sci. USA. 1993, 90, 4196-4200.) were kindly provided by Dr. Graeme I. Bell of the University of Chicago. The hSSTR-1, hSSTR-2, hSSTR-3, hSSTR-4 and hSSTR-5 cDNAs were isolated as a 1.5-kb PstI-XmnI fragment, 1.7-kb BamHI-HindIII fragment, 2.0-kb NcoI-HindIII fragment, 1.4-kb NheI-NdeI fragment, and a 1.2-kb HindIII-XbaI fragment, respectively, each containing the entire coding region of the full-length receptors. These fragments were independently subcloned into the corresponding restriction endonuclease sites in the mammalian expression vector pCMV5, downstream from the human cytomegalovirus (CMV) promoter, to produce the expression plasmids pCMV5/hSSTR-1, pCMV5/hSSTR-2, pCMV5/hSSTR-3, pCMV5/hSSTR-4 and pCMV5/hSSTR-5. For transfection into CHO-K1 cells, a plasmid, pRSV-neo (American Type Culture Collection, Rockville, Md.), carrying the neomycin mammalian cell selectable marker was added.
(§2) Receptor Expression and Transfection. Transfections were performed by the calcium phosphate method. CHO-K1 cells were maintained in α-minimum essential medium (α-MEM; Gibco) supplemented with 10% fetal calf serum and transfected with each of the expression plasmids using calcium phosphate precipitation. Clones that had inherited the expression plasmid were selected in α-MEM supplemented with 500 μg mL^−1 of geneticin (G418; Gibco). Independent CHO-K1 clones were picked by glass-ring cloning and expanded in culture in the selective media. Membranes were prepared from the isolated clones and hSSTR expression was initially assessed for binding with [^125I]Tyr^11-SRIF and [^125I]MK-678 (for SSTR-2).
(§3) Radioligand Binding Assays. Cell membranes of the 5 cells types were obtained from homogenates (Polytron setting 6, 15 sec) of the corresponding CHO-K1 cells, in ice-cold Tris-HCl (50 mM) and centrifuged (39000 g, 10 min×2), with an intermediate resuspension in fresh buffer. The final pellets were resuspended in Tris-HCl (10 mM) for assay. Aliquots of the membranes were incubated (30 min at 37° C.) with 0.05 nM [^125I]Tyr^11-SRIF (types 1, 3, 4, 5) or [^125I]MK-678 (type 2) in […] (pH 7.4) containing BSA (10 mg mL^−1); MgCl2 (5 mM), Trasylol (200 kIU mL^−1), bacitracin (0.02 mg mL^−1), and phenylmethanesulfonyl fluoride (0.02 mg mL^−1). The final assay volume was 0.3 mL and incubations were terminated by rapid filtration through GF/C filters pre-soaked in 0.3% poly(ethylenimine) using a Brandel rapid filtration module. Each tube and filter was then washed with aliquots of cold buffer (3×5 mL).
(§4) Specific binding is defined as the total radioligand bound minus that bound in the presence of 1.0 μM SRIF. The following total radioligand binding and non-specific binding (nsb) values were typically obtained with these assay systems: hSSTR-1, 7000 cpm total versus 3500 cpm nsb; hSSTR-2, 9000 cpm total versus 1000 cpm nsb; hSSTR-3, 8000 cpm total versus 1000 cpm nsb; hSSTR-4, 6000 cpm total versus 3500 cpm nsb; and hSSTR-5, 7500 cpm total versus 3500 cpm nsb. The binding affinities are expressed as Ki values ±SEM (nM) for each of the five receptor subtypes. Ki values derived for representative compounds of the instant invention are detailed in Table 2.
(§5) The binding affinities (Kd, nM) of all SRIF analogues were determined using their concentration-dependent displacement of ^125I-radiolabeled peptide ligands from membranes isolated from CHO cells transfected with the corresponding human somatostatin receptor.

hSSTR-1 = target: T2, hSSTR-1 (Homo sapiens, UniProt P30872); experiment: Radioligand binding assay, cloned human somatostatin receptor type 1; settings: CHO-K1 cell membranes, displacement of [125I]Tyr11-SRIF; mean ± SEM, single values = one experiment; read-out: Kd ± SEM hsst1
T2 construct: each containing the entire coding region of the full-length receptors; expressed in transfected cells
Excerpt: as §1, §2, §3, §4, §5

hSSTR-3 = target: T3, hSSTR-3 (Homo sapiens, UniProt P32745); experiment: Radioligand binding assay, cloned human somatostatin receptor type 3; settings: CHO-K1 cell membranes, displacement of [125I]Tyr11-SRIF; mean ± SEM, single values = one experiment; read-out: Kd ± SEM hsst3
T3 construct: each containing the entire coding region of the full-length receptors; expressed in transfected cells
Excerpt: as §1, §2, §3, §4, §5

hSSTR-2 = target: T4, hSSTR-2 (Homo sapiens, UniProt P30874); experiment: Radioligand binding assay, cloned human somatostatin receptor type 2; settings: CHO-K1 cell membranes, displacement of [125I]MK-678; mean ± SEM, single values = one experiment; read-out: Kd ± SEM hsst2
T4 construct: each containing the entire coding region of the full-length receptors; expressed in transfected cells
Excerpt: as §1, §2, §3, §4, §5

hSSTR-4 = target: T5, hSSTR-4 (Homo sapiens, UniProt P31391); experiment: Radioligand binding assay, cloned human somatostatin receptor type 4; settings: CHO-K1 cell membranes, displacement of [125I]Tyr11-SRIF; mean ± SEM, single values = one experiment; read-out: Kd ± SEM hsst4
T5 construct: each containing the entire coding region of the full-length receptors; expressed in transfected cells
Excerpt: as §1, §2, §3, §4, §5

[1] = system: Culture Rat Pituitary Cells; type: cell-based; settings: inhibition of GH release, dispersed rat anterior pituitary cells, GHRH(1-29)NH2 1 nM, 3 h at 37° C.; mean ± SEM of (n) dose response curves; read-out: Agonist IC50 ± SEM (n)
Description: SRIF Analogue Inhibition of GH Release. Anterior pituitaries from adult male rats were collected and dispersed by a previously described trypsin/DNase method. […] The cells were randomly plated at a density of approximately 200,000 cells/well (Costar cluster 24; Rochester Scientific Co., Rochester, N.Y.). […] In preparation for a hormone challenge, the cells were washed with medium 199 (Gibco, 3×1 mL). Each dose of a compound of this invention was tested in triplicate wells in a total volume of 1 mL medium 199 containing 1% BSA (fraction V; Sigma Chemical Co.). All wells contained GHRH(1-29)NH2 (1 nM). After incubation in an air/carbon dioxide atmosphere (95/5%, 3 h at 37° C.), the medium was removed and stored at −20° C. until assayed for hormone content. Growth hormone in media was measured by a standard double antibody RIA using components generously supplied by Dr. A. F. Parlow at the National Hormone and Pituitary Program (NHHP) Torrance, Calif. Agonist IC50's were calculated using Sigmaplot (Jandel Scientific, San Rafael, Calif.). Values are expressed as the mean IC50 (nM)±SEM from (n) separate dose-response curves.

T3 sequence (P32745 whole entry): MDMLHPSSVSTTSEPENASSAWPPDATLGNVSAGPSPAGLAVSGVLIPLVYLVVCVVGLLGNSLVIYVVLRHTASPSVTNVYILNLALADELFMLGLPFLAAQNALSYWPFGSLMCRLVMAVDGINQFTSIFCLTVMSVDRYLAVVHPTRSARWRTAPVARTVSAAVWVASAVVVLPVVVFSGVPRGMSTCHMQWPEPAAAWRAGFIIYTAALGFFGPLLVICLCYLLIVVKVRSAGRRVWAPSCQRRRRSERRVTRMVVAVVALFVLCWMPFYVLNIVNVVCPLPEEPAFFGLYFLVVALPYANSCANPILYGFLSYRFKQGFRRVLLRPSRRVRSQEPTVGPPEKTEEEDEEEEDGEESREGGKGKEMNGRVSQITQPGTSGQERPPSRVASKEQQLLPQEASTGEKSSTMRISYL
T1 sequence (P35346 whole entry): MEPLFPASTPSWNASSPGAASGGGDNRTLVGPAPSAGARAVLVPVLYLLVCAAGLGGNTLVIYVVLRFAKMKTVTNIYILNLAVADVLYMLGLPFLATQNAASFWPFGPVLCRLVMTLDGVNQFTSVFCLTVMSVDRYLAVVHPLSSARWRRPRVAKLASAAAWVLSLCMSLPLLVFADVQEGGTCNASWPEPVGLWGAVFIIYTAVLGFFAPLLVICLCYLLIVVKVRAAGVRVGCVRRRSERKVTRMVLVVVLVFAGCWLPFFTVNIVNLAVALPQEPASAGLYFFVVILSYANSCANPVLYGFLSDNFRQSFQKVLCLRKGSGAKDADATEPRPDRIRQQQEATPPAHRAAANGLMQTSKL
T5 sequence (P31391 whole entry): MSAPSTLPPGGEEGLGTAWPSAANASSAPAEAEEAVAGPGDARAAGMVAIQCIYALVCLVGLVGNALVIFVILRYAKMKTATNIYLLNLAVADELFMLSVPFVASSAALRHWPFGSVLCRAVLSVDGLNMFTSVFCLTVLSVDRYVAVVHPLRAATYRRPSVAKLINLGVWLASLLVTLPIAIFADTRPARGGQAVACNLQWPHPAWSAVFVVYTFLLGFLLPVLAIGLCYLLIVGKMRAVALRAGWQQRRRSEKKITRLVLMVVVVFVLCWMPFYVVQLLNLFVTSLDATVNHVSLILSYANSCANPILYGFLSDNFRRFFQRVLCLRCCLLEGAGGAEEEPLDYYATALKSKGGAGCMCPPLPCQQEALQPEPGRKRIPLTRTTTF
T2 sequence (P30872 whole entry): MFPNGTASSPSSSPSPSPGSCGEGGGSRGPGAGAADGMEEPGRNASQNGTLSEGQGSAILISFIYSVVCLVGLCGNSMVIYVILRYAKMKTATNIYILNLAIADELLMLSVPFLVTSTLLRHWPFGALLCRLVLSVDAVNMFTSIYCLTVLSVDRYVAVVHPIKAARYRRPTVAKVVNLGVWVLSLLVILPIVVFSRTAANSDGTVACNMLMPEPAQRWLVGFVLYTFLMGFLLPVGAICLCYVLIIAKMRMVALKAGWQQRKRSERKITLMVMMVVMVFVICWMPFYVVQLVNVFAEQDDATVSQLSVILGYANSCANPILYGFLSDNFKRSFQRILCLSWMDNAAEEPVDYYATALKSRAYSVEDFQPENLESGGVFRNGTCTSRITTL
T4 sequence (P30874 whole entry): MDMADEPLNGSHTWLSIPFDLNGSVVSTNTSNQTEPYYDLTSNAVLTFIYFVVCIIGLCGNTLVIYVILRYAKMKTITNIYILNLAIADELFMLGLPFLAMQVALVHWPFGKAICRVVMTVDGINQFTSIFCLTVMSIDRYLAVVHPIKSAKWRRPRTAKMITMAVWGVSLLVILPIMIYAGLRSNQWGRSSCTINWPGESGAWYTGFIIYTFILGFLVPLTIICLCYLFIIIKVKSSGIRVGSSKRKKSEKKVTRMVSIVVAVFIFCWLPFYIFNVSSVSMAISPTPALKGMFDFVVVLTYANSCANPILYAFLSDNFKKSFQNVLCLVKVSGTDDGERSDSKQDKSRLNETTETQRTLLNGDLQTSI

Question: Which results are given for `C[C@@H](O)[C@H](NC(=O)[C@@H]1CSSC[C@H](N(C)C(=O)[C@H](N)Cc2ccccc2)C(=O)N[C@@H](Cc2ccccc2)C(=O)N[C@H](Cc2c[nH]c3ccccc23)C(=O)N[C@@H](CCCCN)C(=O)N[C@@H]([C@@H](C)O)C(=O)N1)C(N)=O` [Example 2, DPhe-cyclo(NMeCys-Phe-DTrp-Lys-Thr-Cys)-Thr-NH2]?
Answer: Kd (hSSTR-5): 0.0237 µM; Kd (hSSTR-1): 0.378 ± 0.119 µM; Kd (hSSTR-3): 0.013 ± 0.0005 µM; Kd (hSSTR-2): 0.00104 ± 0.00018 µM; Kd (hSSTR-4): > 1 µM

Question: Which Kd (hSSTR-5) does the source give for `C[C@@H](O)[C@H](NC(=O)[C@@H]1CSSC[C@H](NC(=O)[C@H](N)Cc2ccccc2)C(=O)N[C@@H](Cc2ccccc2)C(=O)N(C)[C@H](Cc2c[nH]c3ccccc23)C(=O)N[C@@H](CCCCN)C(=O)N[C@@H]([C@@H](C)O)C(=O)N1)C(N)=O` [Example 4, DPhe-cyclo(Cys-Phe-NMeDTrp-Lys-Thr-Cys)-Thr-NH2] here?
Answer: 0.00061 ± 0.00036 µM

Question: What about the Kd (hSSTR-1) of the same compound?
Answer: 1.2 µM

Question: And the Kd (hSSTR-4)?
Answer: > 1 µM

Question: What does the source list for `C[C@@H](O)[C@H](NC(=O)[C@@H]1CSSC[C@H](NC(=O)[C@H](N)Cc2ccccc2)C(=O)N[C@@H](Cc2ccccc2)C(=O)N[C@H](Cc2c[nH]c3ccccc23)C(=O)N[C@@H](CCCCN)C(=O)N(C)[C@@H]([C@@H](C)O)C(=O)N1)C(N)=O` [Example 6, DPhe-cyclo(Cys-Phe-DTrp-Lys-NMeThr-Cys)-Thr-NH2]?
Answer: Kd (hSSTR-5): > 1 µM; Kd (hSSTR-1): > 1 µM; Kd (hSSTR-3): > 1 µM; Kd (hSSTR-2): > 1 µM; Kd (hSSTR-4): > 1 µM

Question: What does the source list for `C[C@@H](O)[C@H](NC(=O)[C@@H]1CSSC[C@H](NC(=O)[C@H](N)Cc2ccccc2)C(=O)N[C@@H](Cc2ccccc2)C(=O)N[C@H](Cc2c[nH]c3ccccc23)C(=O)N[C@@H](CCCCN)C(=O)N[C@@H]([C@@H](C)O)C(=O)N1C)C(N)=O` [Example 7, DPhe-cyclo(Cys-Phe-DTrp-Lys-Thr-NMeCys)-Thr-NH2]?
Answer: Kd (hSSTR-5): 0.0284 ± 0.0193 µM; Kd (hSSTR-1): 0.622 ± 0.172 µM; Kd (hSSTR-2): 0.0562 ± 0.0264 µM; Kd (hSSTR-4): 0.574 µM

Question: `C[C@@H](O)[C@H](NC(=O)[C@@H]1CSSC[C@H](NC(=O)[C@@H](N)Cc2ccc(O)cc2)C(=O)N[C@@H](Cc2ccccc2)C(=O)N[C@H](Cc2c[nH]c3ccccc23)C(=O)N[C@@H](CCCCN)C(=O)N(C)[C@@H]([C@@H](C)O)C(=O)N1)C(N)=O` [Example 15, Tyr-cyclo(Cys-Phe-DTrp-Lys-NMeThr-Cys)-Thr-NH2] (H-YCF[dW]K[NMeT]CT-NH2; disulfide 2-7; N-terminus assumed) was tested. Which Kd (hSSTR-5) did it give?
Answer: 0.09279 ± 0.0007 µM

Question: And the Kd (hSSTR-1)?
Answer: 1 µM

Question: And the Kd (hSSTR-3)?
Answer: 0.44 ± 0.126 µM

Question: What about the Kd (hSSTR-2) of the same compound?
Answer: 0.0613 ± 0.00695 µM

Question: What about the Kd (hSSTR-4) of the same compound?
Answer: ≥ 1 µM

Question: `C[C@H](N)C(=O)NCC(=O)N[C@H]1CSSC[C@@H](C(=O)O)NC(=O)[C@H](CO)NC(=O)[C@H]([C@@H](C)O)NC(=O)[C@H](Cc2ccccc2)NC(=O)[C@H]([C@@H](C)O)NC(=O)[C@H](CCCCN)NC(=O)[C@H](Cc2c[nH]c3ccccc23)NC(=O)[C@H](Cc2ccccc2)NC(=O)[C@H](Cc2ccccc2)NC(=O)[C@H](CC(N)=O)NC(=O)[C@H](CCCCN)NC1=O` [SRIF-14] was tested. Which IC50 [1] did it give?
Answer: 0.00017 ± 5.4e-05 µM

Question: Which IC50 [1] does the source give for SRIF-28 here?
Answer: 0.00023 ± 5.2e-05 µM
